Literature values as cited in patent publication US20050214353A1, “Transdermal therapeutic system” (priority 2001, published 2005).

## CCN(CC)C(=O)N[C@H]1C=C2c3cccc4[nH]cc(c34)C[C@H]2N(C)C1 [lisuride, 3-(9,10-didehydro-6-methyl-8α-ergolinyl)-1,1-diethyl urea]
  half-life in the blood: ca. 2 hrs
